Assay results taken from patent US20220016241A1, “COMPOSITIONS AND METHODS FOR REDUCING ANTIGEN-SPECIFIC IMMUNOGENICITY” (The Research Foundation for The State University of New York, priority 2013, published 2022).

Key:
[1] = test system: anti-IgG antibody titers; test: Effect of OPLS on human IgG immunogenicity; format: in vivo, mice; settings: 0.4 mg OPLS with 1 μg human IgG s.c., days 1, 8, 10, 12
Procedure: Materials and Methods: 8 animals were used for this pilot study, 4 animals were injected with Human-IgG (Sigma) alone (1 μg) or with Human IgG plus OPLS (1 μg human IgG plus 0.4 mg OPLS). The study was done with 4 injections over 2 weeks period as follows: day 1, day 8, day 10 and day 12 followed by a 3 days washout period. ELISA was done to measure total titers. Briefly, Nunc-Maxisorb 96-well plates were coated overnight at 4° C. with 50 μl/well of 2.5 μg/ml Human IgG. Plates were then washed and blocked with 1% bovine serum albumin (blocking buffer). 50 μl/well of various dilutions of the sample were added to the plate and incubated at room temperature for 2 h. Plasma samples from animals exposes to a sham treatment (buffer only) served as controls. The plates were then washed and incubated with 50 μl of goat anti-mouse anti-body-HRP conjugate at a 1:50000 dilution in blocking buffer at room temperature for 1 h. Color was developed for 20 min with 100 μl of TMB solution. 100 μl of 2 N H2SO4 was used to stop the reaction. Optical density at […] was measured using a plate reader. Non-responders were given the value of the plate specific factor for uniformity.
In this pilot study, animals were injected with Human-IgG (Sigma) alone (1 μg) or with OPLS […]. […]

[2] = test system: anti-GAA peptide antibody titers; test: Effect of OPLS and PS-liposomes on GAA peptide immunogenicity; format: in vivo, mouse; settings: 10 μg peptide, 4 weekly s.c.; OPLS 5 mg or PS/PC 1:10,000 protein:lipid
Procedure: Materials and Methods. GAA peptide Source: This GAA peptide was produced by American Peptide Company (Sunnyvale, Calif.). They produced for us a peptide […] containing amino acids 339-352 of the full length GAA sequence, YIFLGPEPKSVVQ (SEQ ID NO:1). OPLS Source: Sigma-Aldrich (St. Louis, Mo.) Peptide concentration dose: 10 μg/injection. Free GAA peptide (n=4), PS-GAA peptide (n=4), and OPLS-GAA peptide (n=5). Each mouse received 4 weekly subcutaneous (s.c.) injections near the base of the tail of 100 μl/injection of their treatment. Two weeks after the last injection, a retro-orbital blood sample was taken from each mouse. Samples were stored at −80° C. until analysis. These samples were then analyzed for anti-GAA peptide Ab titers. Anti-GAA antibody titers were measured as follows: ELISA plate (maxisorp, NUNC) was coated with 100 μl of 10 μg/ml of sterile rhGAA in sodium carbonate-bicarbonate buffer pH=9.6. The plate was incubated overnight at 4° C. The plate was washed six times with PBS containing 0.05% Tween 20 (PBS-T, 250 μl/well) using an automated plate washer. […] The reaction was stopped with 2 N sulfuric acid and read immediately at 450 nm using a micro-plate reader. The titer values are quantitated using a statistical endpoint method as described by Frey et al. Control plasma samples were run on each plate. […]

[3] = test system: anti-RXT antibody titers; test: Effect of OPLS on rituximab immunogenicity; format: in vivo, SW mice; settings: OPLS 5 mg vs 0.4 mg with 1 μg RXT s.c., dose dependent
Procedure: Materials and Methods: 30 SW mice between 6 and 8 weeks of age were divided into 3 groups: group one received 1 ug RXT SC in the abdominal region. Group two received 1 ug RXT/0.4 mg OPLS SC in the abdominal region and group 3 received 1 μg RXT/5 mg OPLS sc in the abdominal region. This treatment was given one day 1, 8, 10 and 12. Three days after the last injection the animals were sacrificed. Blood was centrifuged at 7500 rpm for 5 min at 4 degrees Celsius. Plasma was then removed and stored at −80 degrees Celsius until analysis Total titers were determined by classical standard ELISA. Briefly, Nunc-Maxisorb 96-well plates were coated overnight at 4° C. with 50 μl/well of 2.5 μg/ml RXT. Plates were then washed and blocked with 1% bovine serum albumin (blocking buffer). 50 μl/well of various dilutions of the sample were added to the plate and incubated at room temperature for 2 h. Plasma samples from animals exposes to a sham treatment (buffer only) served as controls. The plates were then washed and incubated with 50 μl of goat anti-mouse FC-specific anti-body-HRP conjugate at a 1:50000 dilution in blocking buffer at room temperature for 1 h. Color was developed for 20 min with 100 μl of TMB solution. 100 μl of 2 N H2SO4 was used to stop the reaction. Optical density at […] was measured using a plate reader. Non-responders were given the value of the plate specific factor for uniformity. […]

N[C@@H](COP(=O)(O)O)C(=O)O [OPLS, O-Phospho-L-Serine]
lower: Anti-IgG antibody titers vs IgG alone [1] | Anti-GAA peptide antibody titers vs GAA peptide alone [2] | Anti-RXT antibody titers vs RXT alone [3]
